Laboratory results: US20230212180A1, “SUBSTITUTED PYRAZINE COMPOUND, PHARMACEUTICAL COMPOSITION COMPRISING SAME, AND USE THEREOF” (Sichuan Kelun-Biotech Biopharmaceutical Co., Ltd., priority 2020, published 2023)
Read-outs that look alike come from different tables or passages of the source.

Key:
[1] = tested on: KYSE-520 cell (human esophageal squamous cell carcinoma cell); test: Inhibition of the proliferation activity of KYSE-520 cell (CellTiter-Glo); assay type: cell-based; conditions: 120 h, KYSE-520 cell proliferation, 5 days
How it was run: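 KYSE-520 cells, 1500/well, adhered overnight, then exposed to compound in complete medium with 10% FBS for 5 days at 37° C, 5% CO2. Viability by CellTiter-Glo luminescence, blank-corrected against cell-free medium and normalised to vehicle. IC50 from four-parameter logistic fit.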

[2] = tested on: NCI-H358 cell (human non-small cell lung cancer cell); test: Inhibition of the proliferation activity of NCI-H358 cell (CellTiter-Glo); assay type: cell-based; conditions: 120 h, 5 days
Experimental: Test Example 4: Experiment on the Inhibition of the Proliferation Activity of NCI-H358 Cell (Human Non-Small Cell Lung Cancer Cell)
cell: NCI-H358 (Nanjing CoBioer);
kit: CellTiter-Glo® Luminescent Cell Viability Assay Kit (Promega).
inoculation amount of cell: 1500 cells/well;
incubation conditions for compounds: 37° C., 5% CO2;
incubation duration: 5 days;
detecting temperature: room temperature;
chemiluminescence detection using the BMG PHERAstar FS reader.
Cells were cultured in a medium containing 10% fetal bovine serum under the culture conditions of 37° C. and 5% CO2. An appropriate amount of cells were plated into a 96-well plate and cultured overnight in an incubator to allow the cells to adhere to the wall. The following day, the medium was removed and a complete medium containing a pre-diluted compound was added and incubated at 37° C. for 5 days. On the fifth day, the detection reagent CellTiter-Glo® was added into each well. Chemiluminescence was adopted to detect the relative luminescence units (RLUs) of the wells.
The result of a well containing cell-free medium, treated with CellTiter-Glo®, was obtained as the blank value. Cell viability (%)=(sample RLU−blank RLU)/(vehicle RLU−blank RLU)×100%, and maximum inhibition rate (%)=100%−cell viabilitymax. conc. (%). The half maximal inhibitory concentration (IC50) of the compound was calculated by fitting the curve according to the four-parameter logistic model.

CYP1A2 = target: T1, CYP1A2 (Homo sapiens, UniProt P05177); test: Biochemical assay for CYP enzyme inhibition, P450-Glo CYP1A2 Screening System; assay type: in vitro ADME
T1 construct: purchased Promega
T1 sequence (P05177 1-516): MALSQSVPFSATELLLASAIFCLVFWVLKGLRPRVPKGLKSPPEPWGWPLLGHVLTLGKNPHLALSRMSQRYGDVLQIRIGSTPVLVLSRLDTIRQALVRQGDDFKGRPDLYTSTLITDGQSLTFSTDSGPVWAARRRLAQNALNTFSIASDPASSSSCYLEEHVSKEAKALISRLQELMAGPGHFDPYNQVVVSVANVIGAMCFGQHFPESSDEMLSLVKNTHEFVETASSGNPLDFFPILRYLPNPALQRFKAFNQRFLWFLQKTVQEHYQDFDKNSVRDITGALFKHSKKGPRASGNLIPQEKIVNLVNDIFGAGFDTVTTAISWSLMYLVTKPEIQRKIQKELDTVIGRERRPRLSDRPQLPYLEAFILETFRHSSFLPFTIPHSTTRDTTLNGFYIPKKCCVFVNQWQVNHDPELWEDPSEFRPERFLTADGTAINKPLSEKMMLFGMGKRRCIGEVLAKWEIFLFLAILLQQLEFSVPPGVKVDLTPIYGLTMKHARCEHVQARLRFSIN
Experimental: (§1) Test Example 5: Biochemical Assay for CYP Enzyme (Cytochrome P450) Inhibition
P450-Glo™ CYP1A2 Screening System, (Promega);
(§2) BMG PHERAstar FS Luminescent.
(§3) The experiments were carried out separately according to the instructions of the kits. The steps were as follows:
3.1. Inhibition Against CYP1A2:
(§4) Test group: The test compounds at different concentrations were added into a microplate, and Luciferin-ME (100 μM), K3PO4 (100 mM), and CYP1A2 (0.01 μmol/μL) were added into each well, and pre-incubated at room temperature for 10 min. Thereafter, an NADPH regeneration system was added. The mixture was reacted at room temperature for 30 min. Finally, an equal volume of detection buffer was added and incubated at room temperature for 20 min, followed by chemiluminescence detection.
(§5) Negative control group: The experimental method for the negative control group was the same as that for the test group, except that the test compound was not added.
Blank control group: The experimental method for the blank control group was the same as that for the test group, except that the test compound was not added and that CYP1A2 was replaced with CYP1A2 Membrance (0.01 μmol/μL).
(§6) Percentage inhibition=(1−(the chemiluminescent signal value of the test compound group at a certain test concentration−the chemiluminescent signal value of the blank control group)/(the chemiluminescent signal value of the negative control group−the chemiluminescent signal value of the blank control group))×100%.
(§7) When the percentage inhibition was between 30% and 80%, a single value or a value range of the half maximal inhibitory concentration (IC50) of the compound against the CYP enzyme was estimated based on the following equation: IC50=X×(1−percentage inhibition)/percentage inhibition, wherein X was the test concentration of the compound.

CYP2D6 = target: T2, CYP2D6 (Homo sapiens, UniProt P10635); test: Biochemical assay for CYP enzyme inhibition, P450-Glo CYP2D6 Screening System; assay type: in vitro ADME
T2 construct: purchased Promega
Experimental: as §1
P450-Glo™ CYP2D6 Screening System, (Promega);
as §2, §3
3.2. Inhibition Against CYP2D6:
as §4, with “and Luciferin-ME EGE (3 μM), K3PO4” for “and Luciferin-ME (100 μM), K3PO4”, “mM), and CYP2D6 (5 nM) were added” for “mM), and CYP1A2 (0.01 μmol/μL) were added”, “reacted at 37° C. for 30” for “reacted at room temperature for 30”
as §5
Blank control group: The experimental method for the blank control group was the same as that for the test group, except that the test compound was not added and that CYP2D6 was replaced with CYP2D6 Membrance (5 nM).
as §6, §7

[3] = estimated from percentage inhibition, read-out: IC50 (μM) CYP2D6
[4] = estimated from percentage inhibition, read-out: IC50 (μM) CYP1A2

T2 sequence (P10635 whole entry): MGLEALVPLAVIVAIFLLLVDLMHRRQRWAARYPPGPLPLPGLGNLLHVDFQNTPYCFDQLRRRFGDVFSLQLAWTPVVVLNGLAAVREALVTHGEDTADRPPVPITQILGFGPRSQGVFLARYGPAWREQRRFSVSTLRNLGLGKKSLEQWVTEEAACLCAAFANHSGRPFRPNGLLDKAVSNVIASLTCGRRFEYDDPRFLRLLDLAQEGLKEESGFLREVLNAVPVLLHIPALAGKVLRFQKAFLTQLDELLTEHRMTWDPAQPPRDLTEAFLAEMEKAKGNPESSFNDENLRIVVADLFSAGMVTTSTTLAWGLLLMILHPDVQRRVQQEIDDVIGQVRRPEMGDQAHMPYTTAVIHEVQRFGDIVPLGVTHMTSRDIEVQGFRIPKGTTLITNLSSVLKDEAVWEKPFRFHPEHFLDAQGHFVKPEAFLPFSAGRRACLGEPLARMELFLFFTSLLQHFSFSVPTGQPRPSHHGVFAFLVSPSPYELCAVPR

SMILES | IC50 [1] [nM] | IC50 [2] [nM] | IC50 (CYP1A2) [µM] | IC50 (CYP2D6) [µM] | IC50 (CYP2D6; [3]) [µM] | IC50 (CYP1A2; [4]) [µM]
C[C@@H]1OCC2(CCN(c3ncc(Sc4ccnc(N5CC(CS(C)(=O)=O)C5)c4Cl)nc3CO)CC2)[C@@H]1N [Example 26, (3-((3S,4S)-4-amino-3-methyl-2-oxa-8-azaspiro[4.5]decan-8-yl)-6-(3-chloro-2-(3-(methylsulfonylmethyl)azetidin-1-yl)pyridin-4-ylthio)pyrazin-2-yl)methanol] | 30 | 32 | > 10 | > 10 | – | –
C[C@@H]1OCC2(CCN(c3ncc(Sc4ccnc(N5CC(C)(CO)C5)c4Cl)nc3CO)CC2)[C@@H]1N [Example 27, (3-((3S,4S)-4-amino-3-methyl-2-oxa-8-azaspiro[4.5]decan-8-yl)-6-(3-chloro-2-(3-(hydroxymethyl)-3-methylazetidin-1-yl)pyridin-4-ylthio)pyrazin-2-yl)methanol] | 60 | 30 | > 10 | > 10 | – | –
C[C@@H]1OCC2(CCN(c3ncc(Sc4ccnc(N5CC(C)(CS(C)(=O)=O)C5)c4Cl)nc3CO)CC2)[C@@H]1N [Example 29, (3-((3S,4S)-4-amino-3-methyl-2-oxa-8-azaspiro[4.5]decan-8-yl)-6-(3-chloro-2-(3-methyl-3-(methylsulfonylmethyl)azetidin-1-yl)pyridin-4-ylthio)pyrazin-2-yl)methanol] | 40 | 40 | > 10 | > 10 | – | –
C[C@@H]1OCC2(CCN(c3ncc(Sc4ccnc(N5CC(CO)(CF)C5)c4Cl)nc3CO)CC2)[C@@H]1N [Example 42, (3-((3S,4S)-4-amino-3-methyl-2-oxa-8-azaspiro[4.5]decan-8-yl)-6-(3-chloro-2-(3-(fluoromethyl)-3-(hydroxymethyl)azetidin-1-yl)pyridin-4-ylthio)pyrazin-2-yl)methanol] | 100 | 44 | > 10 | – | > 10 | –
CC(C)(O)C1CN(c2nccc(Sc3cnc(N4CCC5(CC4)Cc4ncccc4[C@H]5N)c(CO)n3)c2Cl)C1 [Example 43, (S)-2-(1-(4-(5-(5-amino-5,7-dihydrospiro[cyclopenta[b]pyridine-6,4′-piperidin]-1′-yl)-6-(hydroxymethyl)pyrazin-2-ylthio)-3-chloropyridin-2-yl)azetidin-3-yl)propan-2-ol] | 40 | 8 | – | – | > 10 | > 10
CC(C)(O)C1CN(c2nccc(Sc3ncc(N4CCC5(CC4)Cc4ncccc4[C@H]5N)nc3N)c2Cl)C1 [Example 46, (S)-2-(1-(4-(3-amino-5-(5-amino-5,7-dihydrospiro[cyclopenta[b]pyridine-6,4′-piperidin]-1′-yl)pyrazin-2-ylthio)-3-chloropyridin-2-yl)azetidin-3-yl)propan-2-ol] | 70 | 28 | – | – | > 10 | > 10
C[C@@H]1OCC2(CCN(c3ncc(Sc4ccnc(N5CC(C#N)(CO)C5)c4Cl)nc3CO)CC2)[C@@H]1N [Example 47, 1-(4-(5-((3S,4S)-4-amino-3-methyl-2-oxa-8-azaspiro[4.5]decan-8-yl)-6-(hydroxymethyl)pyrazin-2-ylthio)-3-chloropyridin-2-yl)-3-(hydroxymethyl)azetidine-3-carbonitrile] | 40 | 23 | > 10 | > 10 | – | –
